These results are taken from patent EP0497921B1, “METHOD FOR INHIBITING ENZYMATIC SYNTHESIS OF NUCLEIC ACIDS USING ISOPSORALENS” (ISAACS, Stephen T., priority 1989, dated 1991).

Assay [1] has as its system HIV 115-mer. The assay is described as follows: Post-amplification sterilization: isopsoralen plus irradiation, reamplification of carryover. Format: biochemical. Conditions: for sterilization sensitivity (molecules of carryover sterilized): 115-mer PCR product; for amplification of carryover, not light-treated: no irradiation. An excerpt:
For the purposes of this determination, the steps of the following experiment include (see Figure 40): a) preparing template, b) providing template, c) providing PCR reagents, d) providing polymerase, e) mixing PCR reagents, template, and polymerase to initiate PCR, f) cycling to provide PCR product, g) carrying over of PCR product into new tubes, h) providing isopsoralen, i) adding isopsoralen to the carryover, j) irradiating, k) addition of new PCR reagents, and l) subsequent PCR. Steps a), b) , c) , d), e), and f). PCR product was provided as described earlier. Step g) carrying over of PCR product. Aliquots of PCR product were added into new reaction tubes at 10^6 copies per tube. Step h) Providing Isopsoralen. AMDMIP was synthesized as described and diluted. Step i) Addition of Isopsoralen. AMDMIP (100 µg/ml, approximately 10^-4 M) was added reaction vessels containing carryover. Step j) Irradiation. Irradiation was performed on the PTI device to avoid photoproduct. Three of the new reaction tubes were irradiated while the others were left unirradiated as controls. Irradiation was for 15 minutes at RT as above. Step k) PCR Reagents and Taq Polymerase Were Added to Appropriate Concentrations. The final volume was increased two fold such that AMDMIP photoproducts were at 50 µg/ml. Step l) Subsequent PCR. Amplification was performed in closed reaction vessels using primer pair SK-38/39 for 20, 25 or 30 cycles, using the temperature profile for cycling described above in the presence of α-^32P-dCTP.
For the purposes of this determination, the steps of the following experiment include (see Figure 42): a) preparing template, b) providing template, c) providing isopsoralen, d) providing PCR reagents, e) providing polymerase, f) mixing isopsoralen, PCR reagents, template, and polymerase to initiate PCR, g) cycling to provide PCR product, h) irradiating, i) carrying over of PCR product into new tubes at specific copy numbers, and j) amplifying in a subsequent PCR. Step a): Template preparation. HIV 115-mer was used as template. Step b) Providing Template. For the reaction, template (equivalent to approximately 10^7 copies) in buffer was provided for the reaction vessel. Step c) Providing Isopsoralen. AMDMIP (400 µg/ml) was provided as the isopsoralen. This is a higher concentration of AMDMIP than used in the previous example. Steps d), e), f) and g). PCR reagents and polymerase were provided, mixed and cycled as described above. This time, however, isopsoralen is part of the pre-amplification mixture. Step h) Irradiation. Irradiation was performed on the CE-III device for 15 minutes at 25°C. Step i) Carrying over of PCR product. Aliquots of PCR product were added into six new reaction tubes - two tubes for each dilution. Dilutions to yield 10^7, 10^5 and 10^3 copies were made. (Note that the dilutions were made from a concentration of approximately […]; thus, the dilutions produce a concentration of photoproduct that is far too low to consider photoproduct sterilization.) Step j) Subsequent PCR. New PCR reagents and polymerase were provided and mixed. Amplification was performed in closed reaction vessels using primer pair SK-38/39 for 30 cycles, using the temperature profile for cycling described above in the presence of α-^32P-dCTP.
The two PCR targets used in these experiments were a 115-mer (SK-38/SK-39 HIV system) and a 500-mer. The 500-mer target is obtained from a PCR amplification of a lambda plasmid with primers PCR 01/02. This system is provided by Cetus/Perkin Elmer as a control in their commercial kits of PCR reagents (Catalogue No. N801-0055). For both of these systems equivalent copy numbers of each target were prepared in the following manner: An initial 30 cycle PCR reaction was carried out for each system with the appropriate primers and targets. Aliquots (approximately 10^5-10^6 target copies) of each of these reactions were transferred to a second set of PCR reactions. […]

Assay [2] concerns DNA. As to conditions: DNA base pair:isopsoralen ratio of 24.3 to 1; 13.1 µg/ml; cited from earlier work.
Where [3] appears, read: 100 µg/ml, CE-III 15 minutes, 30 cycles.
The mark [4] stands for this setting: 400 µg/ml, CE-III 15 minutes, 30 cycles.

For the substance “4'-Aminomethyl-4,5'-dimethylisopsoralen [AMDMIP]”, the “sterilization of 115-mer PCR product compared with AMIP” value in assay [1] (setting [3]) was “better sterilization agent”. In addition, in assay [1] (setting [4]), the “sterilization sensitivity (molecules of carryover sterilized)” value is reported as ≥ 6 x 10^9 carryover molecules. For the same substance, the sterilization of carryover result is listed as “no significant sterilization is observed” in assay [1] (AMDMIP 100 µg/ml added after amplification, PTI 15 minutes, 10^6 copies, thirty cycles); “sterilization appears to be complete” in assay [1] (AMDMIP 100 µg/ml added after amplification, PTI 15 minutes, 10^6 copies, twenty cycles); “PCR product is visible” in assay [1] (AMDMIP 100 µg/ml added after amplification, PTI 15 minutes, 10^6 copies, twenty-five cycles, reduced relative to controls); “complete, post-amplification sterilization” in assay [1] (AMDMIP 400 µg/ml present during amplification, CE-III 15 minutes at 25°C, 10^7, 10^5, 10^3 copies, 30 cycles). Moreover, the “amplification of carryover, not light-treated” value was “show amplification” in assay [1] (AMDMIP 100 µg/ml, 20, 25, 30 cycles) and “show amplification” in assay [1] (AMDMIP 400 µg/ml present during first amplification, 30 cycles). In assay [1] (inferred from 20 cycles with 100 CPM threshold and Table 6), the “target molecules left capable of being replicated by PCR” value was “less than 10^4 target molecules”. Besides, the “target molecules that retained replicating capabilities” value in assay [1] (inferred from 25 cycles and Table 6) was “at least 10^3 target molecules”. Further, the “1 photobound AMDMIP per n DNA base pairs” value in assay [2] was 151 DNA base pairs.
Turning to 5-Aminomethylisopsoralen [AMIP], the figures for the “sterilization sensitivity (molecules of carryover sterilized)” value in assay [1] (setting [3]) and in assay [1] (setting [4]) were “about 10,000 molecules of carryover” and “about 10^6 carryover molecules”, respectively.
